System: KRAS-mutant PDC multicell tumor spheroid viability
Assay: Anticancer human tumor 521955-158-R2-J5-PDC patient-derived pancreatic carcinoma cell line growth inhibition [KRAS2]
Details: for IC50: curve of first compound; for viability, T/C: stronger effect = lower value
Description: Multicellular complex tumor spheroid response to RAS pathway inhibitors in combination with a targeted agents in patient-derived cell lines with oncogenic KRAS variants from multiple cancer types
A high-throughput screen of multi-cell type tumor spheroids was designed to identify active combinations of targeted small molecules and KRAS pathway inhibitors. Complex spheroids include a stromal component modeled by human endothelial cells (HUVEC) and fibroblasts modeled by human mesenchymal stem cells (MSCs). The concentration ranges selected for each drug and investigational agent were based upon clinically achievable concentrations if the clinical Cmax of the agent was known.
Compounds. The drugs and investigational agents: BI-3406 (NSC825286), BAY-293 (NSC824723), batoprotafib (TNO155; NSC825523), sotorasib (AMG 510; NSC818433), MRTX1257 (NSC819558), elimusertib (BAY 1895344; NSC800525), molibresib (GSK525762; NSC774829), temuterkib (LY3214996; NSC803410), venetoclax (NSC766270), alisertib (NSC759677), olaparib (NSC753686), talazoparib (NSC767125), erdafitinib (NSC781556), ipatasertib (NSC767898), cabozantinib (NSC761068), nintedanib (NSC756659), abemaciclib (NSC768073), docetaxel (NSC628503), trametinib (NSC758246), and sapanisertib (NSC764658) were obtained from the National Cancer Institute (NCI) Developmental Therapeutics Program Chemical Repository. The FDA-approved anticancer drug set is available from the Developmental Therapeutics Program. […] The stock solutions were prepared in dimethyl sulfoxide (DMSO, Sigma-Aldrich, St. Louis, MO, cat. D2650) at 800-fold the tested concentration and stored at -70 degrees C prior to their use. All drugs and investigational agents were tested over a range starting from a high concentration at or near the clinical Cmax and decreasing in half-log increments. If the clinical Cmax for an agent had not been determined, the highest concentration tested was 10 microM.
Cell Culture. All cells were maintained in an incubator at 37 degrees C and 5% CO2 with 95% humidity. The PDC lines were cultured according to standard operating procedures established by the NCI PDMR (https://pdmr.cancer.gov/sops/default.htm). Briefly, all PDCs were thawed and cultured in Matrigel-coated flasks prepared with a working solution of 1X Ham's F-12 nutrient mix, without supplementation (Invitrogen, Waltham, MA, cat. 11765054), 100 U/mL penicillin-streptomycin (Invitrogen, cat. 15140122), and 2.5% Matrigel (Corning Inc., Corning, NY, cat. 354248) for the first three passages. All PDCs were cultured in complete DMEM/F-12 media containing advanced DMEM/F-12 (Invitrogen, cat. 12634028), 4.9% defined fetal bovine serum, heat inactivated (HyClone Laboratories Inc., Logan, UT, cat. SH30070.03HI), 389 ng/mL hydrocortisone (Sigma-Aldrich, cat. H4001), 9.7 ng/mL human EGF recombinant protein (Invitrogen, cat. PHG0313), 23.4 microg/mL adenine (Sigma-Aldrich, cat. A2786), 97.3 U/mL penicillin-streptomycin (Invitrogen, cat. 15140122), 1.9 mM L-glutamine (Invitrogen, cat. 25030081), and 9.7 microM Y-27632 dihydrochloride (Tocris Bioscience, Bristol, United Kingdom, cat. 1254). The PDCs were cultured in complete DMEM/F12 media without 9.7 microM Y-27632 dihydrochloride for at least two passages prior to the screen. The established cell line HOP-62 was cultured in RPMI 1640 medium, HEPES (Invitrogen, cat. 22400105) with 10% defined fetal bovine serum (HyClone Laboratories Inc., cat. SH30070.03) and 2 mM L-glutamine (Invitrogen, cat. 25030081). The pooled donor HUVEC were cultured in endothelial cell growth medium 2 (PromoCell, Heidelberg, Germany, cat. C-22011) and the hMSC were cultured in mesenchymal stem cell growth medium 2 (PromoCell, cat. C-28009). For all experiments, HUVEC and hMSC were used at passages </=5, while the malignant cell lines were used at passages </=15. […]

[1] = second compound 0.1 µM, first compound 0.0316 µM
[2] = second compound 0.1 µM, first compound 0.1 µM
[3] = second compound 0.316 µM, first compound 0.0316 µM
[4] = second compound 0.316 µM, first compound 0.1 µM
[5] = second compound 1 µM, first compound 0.0316 µM
[6] = second compound 1 µM, first compound 0.1 µM
[7] = second compound 3.16 µM, first compound 0.0316 µM
[8] = second compound 3.16 µM, first compound 0.1 µM
[9] = second compound 10 µM, first compound 0.0316 µM
[10] = second compound 10 µM, first compound 0.1 µM
[11] = second compound 0.1 µM, first compound 0.316 µM
[12] = second compound 0.1 µM, first compound 1 µM
[13] = second compound 0.1 µM, first compound 3.16 µM
[14] = second compound 0.1 µM, first compound 10 µM
[15] = second compound 0.316 µM, first compound 0.316 µM
[16] = second compound 0.316 µM, first compound 1 µM
[17] = second compound 0.316 µM, first compound 3.16 µM
[18] = second compound 0.316 µM, first compound 10 µM
[19] = second compound 1 µM, first compound 0.316 µM
[20] = second compound 1 µM, first compound 1 µM
[21] = second compound 1 µM, first compound 3.16 µM
[22] = second compound 1 µM, first compound 10 µM
[23] = second compound 3.16 µM, first compound 0.316 µM
[24] = second compound 3.16 µM, first compound 1 µM
[25] = second compound 3.16 µM, first compound 3.16 µM
[26] = second compound 3.16 µM, first compound 10 µM
[27] = second compound 10 µM, first compound 0.316 µM
[28] = second compound 10 µM, first compound 1 µM
[29] = second compound 10 µM, first compound 3.16 µM
[30] = second compound 10 µM, first compound 10 µM
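Note: viability read after seven days of drug exposure.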

| Structure (SMILES) | IC50 (second compound 0.1 µM) [nM] | IC50 (second compound 0.316 µM) [nM] | IC50 (second compound 1 µM) [nM] | IC50 (second compound 3.16 µM) [nM] | IC50 (second compound 10 µM) [nM] | viability, T/C [1] [%] | viability, T/C [2] [%] | viability, T/C [3] [%] | viability, T/C [4] [%] | viability, T/C [5] [%] | viability, T/C [6] [%] | viability, T/C [7] [%] | viability, T/C [8] [%] | viability, T/C [9] [%] | viability, T/C [10] [%] | viability, T/C [11] [%] | viability, T/C [12] [%] | viability, T/C [13] [%] | viability, T/C [14] [%] | viability, T/C [15] [%] | further results |
| --- | --- | --- | --- | --- | --- | --- | --- | --- | --- | --- | --- | --- | --- | --- | --- | --- | --- | --- | --- | --- | --- |
| CN(C)C/C=C/C(=O)Nc1cc2c(Nc3ccc(F)c(Cl)c3)ncnc2cc1O[C@H]1CCOC1 + C=CC(=O)N1CCN(c2nc(=O)n(-c3c(C)ccnc3C(C)C)c3nc(-c4c(O)cccc4F)c(F)cc23)C(C)C1 | > 100 | > 100 | > 100 | > 100 | 75.8 | 98.6 | 80.5 | 90.6 | 76.7 | 85.2 | 71 | 59.4 | 69.2 | 51.9 | 49.7 | – | – | – | – | – | viability, T/C (second compound 0.1 µM, first compound 0.000316 µM): 124%; viability, T/C (second compound 0.1 µM, first compound 0.001 µM): 118%; viability, T/C (second compound 0.1 µM, first compound 0.00316 µM): 93.8%; viability, T/C (second compound 0.1 µM, first compound 0.01 µM): 97.2%; viability, T/C (second compound 0.316 µM, first compound 0.000316 µM): 133%; viability, T/C (second compound 0.316 µM, first compound 0.001 µM): 134%; viability, T/C (second compound 0.316 µM, first compound 0.00316 µM): 103%; viability, T/C (second compound 0.316 µM, first compound 0.01 µM): 88.5%; viability, T/C (second compound 1 µM, first compound 0.000316 µM): 120%; viability, T/C (second compound 1 µM, first compound 0.001 µM): 120%; viability, T/C (second compound 1 µM, first compound 0.00316 µM): 99.8%; viability, T/C (second compound 1 µM, first compound 0.01 µM): 84.9%; viability, T/C (second compound 3.16 µM, first compound 0.000316 µM): 99.4%; viability, T/C (second compound 3.16 µM, first compound 0.001 µM): 104%; viability, T/C (second compound 3.16 µM, first compound 0.00316 µM): 89.5%; viability, T/C (second compound 3.16 µM, first compound 0.01 µM): 77%; viability, T/C (second compound 10 µM, first compound 0.000316 µM): 67.4%; viability, T/C (second compound 10 µM, first compound 0.001 µM): 72.4%; viability, T/C (second compound 10 µM, first compound 0.00316 µM): 55.7%; viability, T/C (second compound 10 µM, first compound 0.01 µM): 57.5% |
| COC(=O)c1ccc2c(C(=Nc3ccc(N(C)C(=O)CN4CCN(C)CC4)cc3)c3ccccc3)c(O)[nH]c2c1 + C=CC(=O)N1CCN(c2nc(=O)n(-c3c(C)ccnc3C(C)C)c3nc(-c4c(O)cccc4F)c(F)cc23)C(C)C1 | 1720 | 1540 | 727 | 1010 | 1260 | 89.6 | 88.4 | 102 | 88.1 | 113 | 96.4 | 86 | 82.1 | 66.5 | 71.5 | 87 | 75.9 | 21 | 0.16 | 89.9 | viability, T/C [16]: 74.2%; viability, T/C [17]: 10.3%; viability, T/C [18]: 0.14%; viability, T/C [19]: 77%; viability, T/C [20]: 43.5%; viability, T/C [21]: 4.15%; viability, T/C [22]: 0.16%; viability, T/C [23]: 67.9%; viability, T/C [24]: 53.4%; viability, T/C [25]: 2.33%; viability, T/C [26]: 0.14%; viability, T/C [27]: 56.6%; viability, T/C [28]: 61.2%; viability, T/C [29]: 4.87%; viability, T/C [30]: 0.22% |
| O=C(c1cc(Cc2n[nH]c(=O)c3ccccc23)ccc1F)N1CCN(C(=O)C2CC2)CC1 + C=CC(=O)N1CCN(c2nc(=O)n(-c3c(C)ccnc3C(C)C)c3nc(-c4c(O)cccc4F)c(F)cc23)C(C)C1 | > 10000 | > 10000 | > 10000 | > 10000 | > 10000 | 115 | 120 | 122 | 110 | 122 | 115 | 99.1 | 109 | 63.5 | 61.9 | 97.1 | 89.6 | 94.2 | 64.8 | 116 | viability, T/C [16]: 103%; viability, T/C [17]: 93.1%; viability, T/C [18]: 77.7%; viability, T/C [19]: 122%; viability, T/C [20]: 103%; viability, T/C [21]: 92.9%; viability, T/C [22]: 73.5%; viability, T/C [23]: 93.9%; viability, T/C [24]: 102%; viability, T/C [25]: 92.6%; viability, T/C [26]: 68.9%; viability, T/C [27]: 65.6%; viability, T/C [28]: 66.2%; viability, T/C [29]: 68.9%; viability, T/C [30]: 43.4% |

From PubChem BioAssay AID1963871 (Molecular Pharmacology Branch, DTP, NCI, 2024)
